From patent US12329753B2, “Phosphodiesterase inhibitor treatment” (Cyrano Therapeutics, Inc., priority 2008, dated 2025)

Columns and labels:
total PDE activity = details: human lung extracts; therapeutic concentrations; cited from earlier work
Hyposmic patients = assay: Open label trial of inhalable PDE inhibitor in hyposmic patients (Examples 3, 4); type: in vivo, human; details: nasal administration, not more than 500 μg
Description: Hyposmic patients for whom the etiology of smell loss is not associated with head injury or allergic rhinitis are enrolled in an open label trial of inhalable theophylline. Patients are started at an initial dose of not more than 500 μg formulated as a liquid spray or dry powder to be delivered as a metered dose. Initially only local patients are enrolled so that quicker dose titration is achieved. Groups of 5 patients are started on not more than 500 μg of theophylline and continued for 1 month.
Patients are tested for improvement in smell acuity using the standard forced choice technique using four odors as described in Example 1. Additionally, subjective measurements of smell function are obtained using a scale from 0-100 as described in Example 1. Blood samples are also drawn to ascertain blood theophylline level to gauge its relationship to the expected recovery of smell.
Hyposmic patients for whom the etiology of smell loss is not associated with head injury or allergic rhinitis are enrolled in an open label trial of an inhalable PDE1 inhibitor. […]

cGMP = assay: Parotid saliva cGMP, 96 plate spectrophotometric assay; type: in vivo, human; details: for saliva cGMP over initial values: improved patients; for change of saliva cGMP: unimproved patients
Description: Parotid saliva was collected from each patient by application of a Lashley cup over Stensen's duct with lingual stimulation by placement of concentrated lemon juice. Saliva was collected in plastic tubes and stored at −20° C. until assayed. cAMP and cGMP were measured in saliva by a sensitive 96 plate spectrophotometric assay (R&D Systems, Minneapolis, MN).
All patients were placed in a fixed design open label clinical trial with treatment with oral theophylline. Treatment consisted of fixed treatment periods of two-eight months with sequential doses of the drug at 200 mg, 400 mg and 600 mg. At termination of each of these intervals, patients returned to study site for reevaluation. At the end of each interval subjective responses to treatment were measured with a modification of the 0-100 scale previously used (vs). Subjective responses to treatment were graded on a sliding scale from −100-0-+100 with patients recording improvement (+0-+100), no improvement (0) or worsening (0—-100) of their overall smell function. If overall smell function improved ≥5% they were considered to improve clinically (1). If smell function improved <5% they were considered not to improve (1). At the end of each interval subjective measurements of smell function, measurements of DT, RT, ME and H and measurements of parotid saliva for levels of cAMP and cGMP were obtained. In addition, blood plasma was obtained by venipuncture, placed in ice into zinc free tubes which contained 100 mg zinc free heparin, centrifuged at 3000 rpm for 10-20 min, the plasma transferred to plastic PCR tubes and stored at −20° C. until assayed. Theophylline was assayed by a fluorescence polarization assay (Abbott, Chicago, IL), as previously described.
Data for the cyclic nucleotides from these 31 patients was not analyzed until the entire study of the 312 patients in Example 1 was assembled and analyzed in its entirety. After completion of these analyses, all data for parotid saliva cAMP and cGMP from all patients in whom salivary cAMP and cGMP were obtained were assembled. Levels of salivary cyclic nucleotides varied widely. Initially, without external criteria, there was no way to understand these disparate data. […] In a similar manner, measurements of each patient's plasma theophylline level at each dosage of theophylline (at 200 mg, 400 mg, 600 mg of theophylline) were catagorized. The two patient groups were also analyzed post hoc with respect to type of smell loss and etiology of smell loss.

Compound: Cn1c(=O)c2[nH]cnc2n(C)c1=O [theophylline]
- inhibition of total PDE activity (total PDE activity): 5 to 10%
- recovery of smell acuity versus oral administration (Hyposmic patients): at least an equivalent recovery of smell acuity
- saliva cGMP over initial values (cGMP; oral 400 mg): 275%
- change of saliva cGMP (cGMP; oral 400 mg): little change
- saliva cGMP over initial values (cGMP; oral 600 mg): 338%
- change of saliva cGMP (cGMP; oral 600 mg): no increase
